Experimental data: patent US5629298A, “Adenosine as a positive inotrop in the compromised heart” (University of Massachusetts Medical Center, priority 1995, dated 1997)
Where two headings read alike, the source gives them in different places.

Tested on: rat heart
Experiment: Isolated perfused heart, normoperfused or hypoperfused (mechanically depressed): LVP, +dP/dtmax, -dP/dtmax
Settings: for effect on the contractile variables (LVP, +dP/dtmax, -dP/dtmax) / activation at 0.01 µM: normoperfusion; for effect on the contractile variables (LVP, +dP/dtmax, -dP/dtmax) / increase in +dP/dtmax / increase in -dP/dtmax / increase in LVP: adenosine 2×10^-5 M, DPCPX 2×10^-7 M; for effect on the contractile variables (LVP, +dP/dtmax, -dP/dtmax): CGS-21680 2×10^-6 M; for activation at 0.01 µM: Rattus norvegicus, 5 seconds; for activation at 0.01 µM / increase in +dP/dtmax / increase in -dP/dtmax / increase in LVP: isoproterenol 10^-8 M; for increase in +dP/dtmax / increase in -dP/dtmax / increase in LVP: hypoperfusion (mechanically depressed heart)
Description: Male Sprague-Dawley rats (500-550 g) were anesthetized with pentobarbital (40 mg/kg, i.p.) and treated with heparin (500 units, i.p.) for 15 minutes. Hearts were excised, rinsed in iced physiological saline ("PS") and perfused with PS (37° C.) via an aortic cannula at a constant rate of 18-20 ml/min. Perfusion pressure ranged from 50 to 60 mm Hg. The PS contained: NaCl, 118 mM; KCl, 4.7 mM; CaCl2, 2.5 mM; NaHCO3, 25 mM; KH2 PO4, 1.2 mM; MgSO4 1.2 mM; glucose 10 mM; and pyruvate 1.8 mM. The pH was maintained at 7.4 by gassing the PS with a 95% O2 /5% CO2 gas mixture. Platinum wire electrodes were inserted into the right atrium to allow pacing of the heart (300 contractions per minute) throughout the perfusion period. Developed left ventricular pressure (LVP) was measured with a saline-filled balloon inserted into the lumen of the left ventricle via the left atrium and attached by a polyethylene cannula to a pressure transducer. The pressure signal was electronically differentiated to obtain the maximum rates of left ventricular pressure development (+dP/dtmax) and relaxation (-dP/dtmax). Balloon volume was varied until the maximal obtainable dP/dt was attained. This optimal preload, ranging from 5 to 10 mm Hg, was maintained constant, permitting isovolumic contraction of the heart. Aortic perfusion pressure was monitored with another pressure transducer. All the LVP, +dP/dtmax, -dP/dtmax and aortic perfusion data were continually recorded on a multichannel polygraph. At the end of the experiment, the wet heart weights were determined; they ranged from 1.4 to 1.8 g.
After instrumentation, the hearts were normoperfused at 18-20 ml/min for 20 minutes, resulting in an aortic perfusion pressure of 50-60 mm Hg. Isoproterenol, adenosine, CGS-21680, DPCPX, atenolol, or a combination of these agents was administered for 1 to 2 minutes, via the aortic perfusion cannula, at 1/100th the perfusion flow rate, to achieve the stated PS concentrations. Isoproterenol was administered for only 5 seconds. To cause mechanical depression of the perfused hearts, the perfusion flow was lowered 5-6 ml/min. The resulting aortic perfusion pressure decreased to 20-30 mm Hg. The various agents either alone or in combination were administered via the PS to the hypoperfused hearts at 1/100th the perfusion flow rate, at the concentrations indicated.

CCNC(=O)[C@H]1O[C@@H](n2cnc3c(N)nc(NCCc4ccc(CCC(=O)O)cc4)nc32)[C@H](O)[C@@H]1O [CGS-21680, 2-p-(2-carboxy-ethyl)phenethyl-amino-5'-N-ethylcarboxamido-adenosine]
effect on the contractile variables (LVP, +dP/dtmax, -dP/dtmax): without affect

CC(C)NCC(O)c1ccc(O)c(O)c1 (centres unmarked) [ISO, isoproterenol]
activation at 0.01 µM (read-out: increase in +dP/dtmax): 167%
activation at 0.01 µM (read-out: increase in -dP/dtmax): 216%
activation at 0.01 µM (read-out: increase in LVP): 119%
increase in +dP/dtmax: 114%
increase in -dP/dtmax: 225%
increase in LVP: 171%

Nc1ncnc2c1ncn2[C@@H]1O[C@H](CO)[C@@H](O)[C@H]1O [adenosine]
increase in +dP/dtmax: 25%
increase in -dP/dtmax: 33%
increase in LVP: 26%
effect on the contractile variables (LVP, +dP/dtmax, -dP/dtmax): did not affect
